Laboratory results from PubChem BioAssay AID256 (DTP/NCI, 2004).
Several values for one entry are separate records, joined by “and”; a condition that tells them apart may be missing. Equal entries are not always repeated. Toxic doses and inconclusive results are not listed. Rule for the calls: active = survival T/C of 150% or more; inactive = T/C below 125% in these data.

Tested on: CD2F1 mice, L1210 leukemia ip, survival T/C
Experiment: NCI In Vivo Anticancer Drug Screen. Data for tumor model L1210 Leukemia (intraperitoneal) in CD2F1 (CDF1) mice
Details: higher = longer survival
In short: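 Transplantable tumor in mice; compound-treated vs vehicle-treated groups. Read-out = treated/control ratio of the measured endpoint.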

[1] = endpoint: mean survival time, dose: 50.0 mg/kg/injection, schedule: Q01DX009 (ip), vehicle: saline with Tween-80
[2] = endpoint: mean survival time, dose: 100.0 mg/kg/injection, schedule: Q01DX009 (ip), vehicle: saline with Tween-80
[3] = endpoint: mean survival time, dose: 200.0 mg/kg/injection, schedule: Q01DX009 (ip), vehicle: saline with Tween-80
[4] = endpoint: mean survival time, dose: 100.0 mg/kg/injection, schedule: Q04DX002 (ip), vehicle: saline with Tween-80
[5] = endpoint: mean survival time, dose: 200.0 mg/kg/injection, schedule: Q04DX002 (ip), vehicle: saline with Tween-80
[6] = endpoint: mean survival time, dose: 100.0 mg/kg/injection, schedule: Q04DX003 (ip), vehicle: saline with Tween-80
[7] = endpoint: mean survival time, dose: 200.0 mg/kg/injection, schedule: Q04DX003 (ip), vehicle: saline with Tween-80
[8] = endpoint: mean survival time, dose: 400.0 mg/kg/injection, schedule: Q04DX003 (ip), vehicle: saline with Tween-80
[9] = endpoint: mean survival time, dose: 400.0 mg/kg/injection, schedule: Q01DX009 (ip), vehicle: saline with Tween-80
[10] = endpoint: mean survival time, dose: 100.0 mg/kg/injection, schedule: Q01DX009 (ip), vehicle: saline
[11] = endpoint: mean survival time, dose: 200.0 mg/kg/injection, schedule: Q01DX009 (ip), vehicle: saline

Measured: T/C

Nc1ncnc2c1nc(NCc1ccccc1)n2C1OC(CO)C(O)C1O (configuration not stated)
inactive: endpoint: mean survival time, dose: 12.5 mg/kg/injection, schedule: Q01DX005 (ip), vehicle: distilled water + Tween-80 93 % of control | endpoint: mean survival time, dose: 25.0 mg/kg/injection, schedule: Q01DX005 (ip), vehicle: distilled water + Tween-80 100 % of control and 95 % of control | endpoint: mean survival time, dose: 50.0 mg/kg/injection, schedule: Q01DX005 (ip), vehicle: distilled water + Tween-80 92 % of control and 101 % of control | endpoint: mean survival time, dose: 100.0 mg/kg/injection, schedule: Q01DX005 (ip), vehicle: distilled water + Tween-80 99 % of control and 93 % of control | endpoint: mean survival time, dose: 200.0 mg/kg/injection, schedule: Q01DX005 (ip), vehicle: distilled water + Tween-80 99 % of control and 100 % of control | endpoint: mean survival time, dose: 400.0 mg/kg/injection, schedule: Q01DX005 (ip), vehicle: distilled water + Tween-80 89 % of control

Cc1cc(O)c(N=Nc2ccc(Br)cc2)cc1C
inactive: [1] 97 % of control | [2] 93 % of control | [3] 97 % of control

CC(C(N)=O)C1CCC2(C)CCC(=O)C(C)C2C1O (configuration not stated)
inactive: [4] 104 % of control | [5] 120 % of control | endpoint: mean survival time, dose: 400.0 mg/kg/injection, schedule: Q04DX002 (ip), vehicle: saline with Tween-80 120 % of control

O=C1C=CC2OC(c3ccccc3)C(O)C2O1 (configuration not stated)
inactive: endpoint: median survival time, dose: 3.12 mg/kg/injection, schedule: Q01DX005 (ip), vehicle: DMSO 111 % of control | endpoint: median survival time, dose: 6.25 mg/kg/injection, schedule: Q01DX005 (ip), vehicle: DMSO 101 % of control | endpoint: median survival time, dose: 12.5 mg/kg/injection, schedule: Q01DX005 (ip), vehicle: DMSO 112 % of control | endpoint: median survival time, dose: 25.0 mg/kg/injection, schedule: Q01DX005 (ip), vehicle: DMSO 115 % of control | endpoint: median survival time, dose: 50.0 mg/kg/injection, schedule: Q01DX005 (ip), vehicle: DMSO 87 % of control

COc1ccc2c(c1OC(C)=O)-c1cc(OC(C)=O)cc3c1C(C2)NCC3 (configuration not stated)
inactive: endpoint: mean survival time, dose: 3.13 mg/kg/injection, schedule: Q04DX003 (ip), vehicle: saline with Tween-80 96 % of control | endpoint: mean survival time, dose: 6.25 mg/kg/injection, schedule: Q04DX003 (ip), vehicle: saline with Tween-80 94 % of control | endpoint: mean survival time, dose: 12.5 mg/kg/injection, schedule: Q04DX003 (ip), vehicle: saline with Tween-80 94 % of control | endpoint: mean survival time, dose: 25.0 mg/kg/injection, schedule: Q04DX003 (ip), vehicle: saline with Tween-80 94 % of control

Nc1cccc(-c2nc3ncnc(N)c3[nH]2)c1
inactive: [6] 94 % of control | [7] 94 % of control | [8] 93 % of control

O=C(O)c1ccccc1C(=O)Nc1cc(C(F)(F)F)ccc1Cl
inactive: [2] 104 % of control | [6] 105 % of control | [3] 96 % of control | [7] 105 % of control | [8] 111 % of control

CC(=O)OCC1OC(Oc2ccccc2)C(OC(C)=O)C(OC(C)=O)C1OC(C)=O (configuration not stated)
inactive: endpoint: median survival time, dose: 50.0 mg/kg/injection, schedule: Q04DX002 (ip), vehicle: saline with Tween-80 100 % of control | endpoint: median survival time, dose: 100.0 mg/kg/injection, schedule: Q04DX002 (ip), vehicle: saline with Tween-80 100 % of control | endpoint: median survival time, dose: 200.0 mg/kg/injection, schedule: Q04DX002 (ip), vehicle: saline with Tween-80 111 % of control | endpoint: median survival time, dose: 400.0 mg/kg/injection, schedule: Q04DX002 (ip), vehicle: saline with Tween-80 88 % of control

CCSC(C(O)C(O)C(O)C(O)CO)n1cnc2c(SC)ncnc21 (configuration not stated)
inactive: endpoint: mean survival time, dose: 25.0 mg/kg/injection, schedule: Q01DX005 (ip), vehicle: water 89 % of control | endpoint: mean survival time, dose: 50.0 mg/kg/injection, schedule: Q01DX005 (ip), vehicle: water 94 % of control | endpoint: mean survival time, dose: 100.0 mg/kg/injection, schedule: Q01DX005 (ip), vehicle: water 94 % of control | endpoint: mean survival time, dose: 200.0 mg/kg/injection, schedule: Q01DX005 (ip), vehicle: water 94 % of control

CC(=O)OC1COCOC1C1OCOCC1OC(C)=O (configuration not stated)
inactive: endpoint: mean survival time, dose: 50.0 mg/kg/injection, schedule: Q01DX009 (ip), vehicle: Klucel (hydroxypropylcellulose) (HPC) 102 % of control | endpoint: mean survival time, dose: 100.0 mg/kg/injection, schedule: Q01DX009 (ip), vehicle: Klucel (hydroxypropylcellulose) (HPC) 102 % of control | endpoint: mean survival time, dose: 200.0 mg/kg/injection, schedule: Q01DX009 (ip), vehicle: Klucel (hydroxypropylcellulose) (HPC) 110 % of control

O=C(O)C(/C=C/c1ccccc1)c1ccccc1 (configuration not stated)
inactive: endpoint: mean survival time, dose: 100.0 mg/kg/injection, schedule: Q01DX001 (ip), vehicle: saline with Tween-80 112 % of control | [2] 101 % of control | [6] 92 % of control | endpoint: mean survival time, dose: 200.0 mg/kg/injection, schedule: Q01DX001 (ip), vehicle: saline with Tween-80 95 % of control | [7] 91 % of control | endpoint: mean survival time, dose: 400.0 mg/kg/injection, schedule: Q01DX001 (ip), vehicle: saline with Tween-80 88 % of control | [9] 103 % of control | [8] 91 % of control

CCOC(=O)C1(Cc2ccccc2)SCCCS1
inactive: endpoint: mean survival time, dose: 50.0 mg/kg/injection, schedule: Q04DX002 (ip), vehicle: saline with Tween-80 105 % of control | [4] 105 % of control | [5] 105 % of control

O=C(COc1ccc(Cl)cc1)C1CSc2ccc(Cl)cc21 (configuration not stated)
inactive: [2] 88 % of control | [6] 95 % of control | [3] 91 % of control | [7] 92 % of control | [9] 89 % of control | [8] 88 % of control

C=C1C=C(C)CC(C)(C)C1 (tested in a mixture with another compound)
inactive: [10] 101 % of control | [6] 102 % of control | [11] 101 % of control | [7] 100 % of control | endpoint: mean survival time, dose: 400.0 mg/kg/injection, schedule: Q01DX009 (ip), vehicle: saline 101 % of control | [8] 102 % of control

Nc1nc(-c2ccccc2)c(CCCNc2ccc(C(=O)NC(CCC(=O)O)C(=O)O)cc2)c(=O)[nH]1 (configuration not stated)
inactive: [10] 94 % of control | [11] 96 % of control

OCC1OC(n2cnc3c(NCCc4ccc(O)c(O)c4)ncnc32)C(O)C1O (configuration not stated)
inactive: endpoint: mean survival time, dose: 12.5 mg/kg/injection, schedule: Q01DX005 (ip), vehicle: saline with Tween-80 104 % of control | endpoint: mean survival time, dose: 25.0 mg/kg/injection, schedule: Q01DX005 (ip), vehicle: saline with Tween-80 109 % of control | endpoint: mean survival time, dose: 50.0 mg/kg/injection, schedule: Q01DX005 (ip), vehicle: saline with Tween-80 116 % of control

O=C1c2ccccc2C(=O)N1CCCCCCCCCCN1C(=O)c2ccccc2C1=O
inactive: [2] 92 % of control | [3] 89 % of control | [9] 93 % of control

COC1C(CO)OC(n2c3c(Cl)cccc3c3c4c(c5c6cccc(Cl)c6[nH]c5c32)C(=O)NC4=O)C(O)C1O (configuration not stated)
inactive: endpoint: median survival time, dose: 12.5 mg/kg/injection, schedule: Q01DX009 (ip), vehicle: distilled water + Tween-80 105 % of control and 112 % of control | endpoint: median survival time, dose: 25.0 mg/kg/injection, schedule: Q01DX009 (ip), vehicle: distilled water + Tween-80 114 % of control | endpoint: median survival time, dose: 36.0 mg/kg/injection, schedule: Q01DX009 (ip), vehicle: distilled water + Tween-80 113 % of control | endpoint: median survival time, dose: 50.0 mg/kg/injection, schedule: Q01DX009 (ip), vehicle: distilled water + Tween-80 112 % of control | endpoint: median survival time, dose: 60.0 mg/kg/injection, schedule: Q01DX009 (ip), vehicle: distilled water + Tween-80 115 % of control | endpoint: median survival time, dose: 100.0 mg/kg/injection, schedule: Q01DX009 (ip), vehicle: distilled water + Tween-80 121 % of control and 103 % of control | endpoint: median survival time, dose: 166.7 mg/kg/injection, schedule: Q01DX009 (ip), vehicle: distilled water + Tween-80 122 % of control | endpoint: median survival time, dose: 200.0 mg/kg/injection, schedule: Q01DX009 (ip), vehicle: distilled water + Tween-80 95 % of control

O=S(=O)(Cl)OC1C2COC(O2)C(OS(=O)(=O)Cl)C1OS(=O)(=O)Cl (configuration not stated)
inactive: endpoint: mean survival time, dose: 12.5 mg/kg/injection, schedule: Q01DX009 (ip), vehicle: saline with Tween-80 108 % of control | endpoint: mean survival time, dose: 25.0 mg/kg/injection, schedule: Q01DX009 (ip), vehicle: saline with Tween-80 103 % of control | [1] 102 % of control
